Laboratory results: patent US8697689B2, “Indole and benzomorpholine derivatives as modulators of metabotropic glutamate receptors” (Janssen Pharmaceuticals, Inc., priority 2008, dated 2014)

Experiments:
[1] = target: T1, human mGluR2 receptor (Homo sapiens, UniProt Q14416); test: [35S]GTPγS binding assay (PAM assay) using membranes from CHO cells transfected with the human mGluR2 receptor; assay type: biochemical; conditions: in presence of mGluR2 agonist glutamate at a predetermined EC25 concentration; averages of duplicate values of 11-concentration response curves; error about 0.3 log-units; read-out: GTPgS-hR2 PAM pEC50 (converted)
T1 construct: expressed in transfected cells; host or cells: CHO cells
Source text: The compounds provided in the present invention are positive allosteric modulators of mGluR2. These compounds appear to potentiate glutamate responses by binding to an allosteric site other than the glutamate binding site. The response of mGluR2 to a concentration of glutamate is increased when compounds of Formula (I) are present. Compounds of Formula (I) are expected to have their effect substantially at mGluR2 by virtue of their ability to enhance the function of the receptor. The behaviour of positive allosteric modulators tested at mGluR2 using the [^35S]GTPγS binding assay method described below and which is suitable for the identification of such compounds, and more particularly the compounds according to Formula (I), are shown in Table 4.
The [^35S]GTPγS binding assay is a functional membrane-based assay used to study G-protein coupled receptor (GPCR) function whereby incorporation of a non-hydrolysable form of GTP, [^35S]GTPγS (guanosine 5′-triphosphate, labelled with […] ^35S), is measured. The G-protein α subunit catalyzes the exchange of guanosine 5′-diphosphate (GDP) by guanosine triphosphate (GTP) and on activation of the GPCR by an agonist, [^35S]GTPγS, becomes incorporated and cannot be cleaved to continue the exchange cycle (Harper (1998) Current Protocols in Pharmacology 2.6.1-10, John Wiley & Sons, Inc.). […] Here we describe the use of the [^35S]GTPγS binding assay using membranes from cells transfected with the human mGluR2 receptor and adapted from Schaffhauser et al ((2003) Molecular Pharmacology 4:798-810) for the detection of the positive allosteric modulation (PAM) properties of the compounds of this invention.
CHO-cells were cultured to pre-confluence and stimulated with 5 mM butyrate for 24 hours, prior to washing in PBS (phosphate-buffered saline), and then collection by scraping in homogenisation buffer (50 mM Tris-HCl buffer, pH 7.4, 4° C.). Cell lysates were homogenized briefly (15 s) using an ultra-turrax homogenizer. The homogenate was centrifuged at 23 500×g for 10 min. and the supernatant discarded. The pellet was resuspended in 5 mM Tris-HCl, pH 7.4 and centrifuged again (30 000×g, 20 min., 4° C.). The final pellet was resuspended in 50 mM HEPES, pH 7.4 and stored at −80° C. in appropriate aliquots before use. Protein concentration was determined by the Bradford method (Bio-Rad, USA) with bovine serum albumin as standard.
Measurement of mGluR2 positive allosteric modulatory activity of test compounds in membranes containing human mGluR2 was performed using frozen membranes that were thawed and briefly homogenised prior to pre-incubation in 96-well microplates (15 μg/assay well, 30 minutes, 30° C.) in assay buffer (50 mM HEPES pH 7.4, 100 mM NaCl, 3 mM MgCl2, 50 μM GDP, 10 μg/ml saponin) with increasing concentrations of positive allosteric modulator (from 0.3 nM to 50 μM) and either a minimal pre-determined concentration of glutamate (PAM assay), or no added glutamate. For the PAM assay, membranes were pre-incubated with glutamate at EC25 concentration, i.e. a concentration that gives 25% of the maximal response glutamate, and is in accordance to published data (Pin et al. (1999) Eur. J. Pharmacol. 375:277-294). After addition of [^35S]GTPγS (0.1 nM, f.c.) to achieve a total reaction volume of 200 μl, microplates were shaken briefly and further incubated to allow [^35S]GTPγS incorporation on activation (30 minutes, 30° C.). The reaction was stopped by rapid vacuum filtration over glass-fibre filter plates (Unifilter 96-well GF/B filter plates, Perkin-Elmer, Downers Grove, USA) microplate using a 96-well plate cell harvester (Filtermate, Perkin-Elmer, USA), and then by washing three times with 300 μl of ice-cold wash buffer (Na2PO4.2H2O 10 mM, NaH2PO4.H2O 10 mM, pH=7.4). […]

T1 sequence (Q14416 19-872): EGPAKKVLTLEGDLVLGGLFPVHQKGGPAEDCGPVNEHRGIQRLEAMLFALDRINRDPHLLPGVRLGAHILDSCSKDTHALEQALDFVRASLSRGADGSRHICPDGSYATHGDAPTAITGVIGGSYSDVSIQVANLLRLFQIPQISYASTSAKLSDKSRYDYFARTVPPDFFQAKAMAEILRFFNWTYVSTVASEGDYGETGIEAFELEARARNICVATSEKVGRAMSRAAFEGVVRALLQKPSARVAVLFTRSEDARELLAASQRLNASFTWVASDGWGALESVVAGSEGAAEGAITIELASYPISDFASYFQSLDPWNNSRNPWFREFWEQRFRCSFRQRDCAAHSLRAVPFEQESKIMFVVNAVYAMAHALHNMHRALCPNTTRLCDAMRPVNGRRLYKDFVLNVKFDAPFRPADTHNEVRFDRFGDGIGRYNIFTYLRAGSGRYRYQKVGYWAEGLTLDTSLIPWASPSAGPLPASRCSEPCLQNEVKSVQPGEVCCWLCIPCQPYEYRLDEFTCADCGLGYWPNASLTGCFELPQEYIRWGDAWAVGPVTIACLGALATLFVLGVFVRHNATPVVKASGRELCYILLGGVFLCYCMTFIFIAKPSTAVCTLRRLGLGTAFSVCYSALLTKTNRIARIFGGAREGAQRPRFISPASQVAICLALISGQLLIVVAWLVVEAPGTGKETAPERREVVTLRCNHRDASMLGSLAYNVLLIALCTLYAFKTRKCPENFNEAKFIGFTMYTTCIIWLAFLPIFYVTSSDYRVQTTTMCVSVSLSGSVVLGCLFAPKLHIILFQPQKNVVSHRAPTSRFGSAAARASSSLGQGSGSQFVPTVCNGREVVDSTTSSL

SMILES	melting point	EC50 [1]
CC(C)CCn1ccc(-c2ccc3c(ccn3[C@H]3CC[C@H](O)CC3)c2)c(Cl)c1=O [Compound 7, trans-3-Chloro-4-[1-(4-hydroxy-cyclohexyl)-1H-indol-5-yl]-1-(3-methyl-butyl)-1H-pyridin-2-one]	182.3 °C	89.1 nM
CCCCn1ccc(-c2ccc3c(ccn3[C@H]3CC[C@H](O)CC3)c2)c(Cl)c1=O [Compound 3, trans-1-Butyl-3-chloro-4-[1-(4-hydroxy-cyclohexyl)-1H-indol-5-yl]-1H-pyridin-2-one]	–	102 nM
CCCCn1ccc(-c2ccc3c(ccn3[C@H]3CC[C@](C)(O)CC3)c2)c(Cl)c1=O [Compound 5, trans-1-Butyl-3-chloro-4-[1-(4-hydroxy-4-methyl-cyclohexyl)-1H-indol-5-yl]-1H-pyridin-2-one]	–	75.9 nM
CCCCn1ccc(-c2ccc3c(ccn3[C@H]3CC[C@@](C)(O)CC3)c2)c(Cl)c1=O [Compound 6, cis-1-Butyl-3-chloro-4-[1-(4-hydroxy-4-methyl-cyclohexyl)-1H-indol-5-yl]-1H-pyridin-2-one]	–	302 nM
CCCCn1ccc(-c2ccc3c(c2)OCCN3C2CCOCC2)c(Cl)c1=O [Compound 1, 1-Butyl-3-chloro-4-[4-(tetrahydro-pyran-4-yl)-3,4-dihydro-2H-benzo[1,4]oxazin-7-yl]-1H-pyridin-2-one]	–	589 nM
CCCCn1ccc(-c2ccc3c(ccn3C3CCOCC3)c2)c(Cl)c1=O [Compound 9, 1-Butyl-3-chloro-4-[1-(tetrahydro-pyran-4-yl)-1H-indol-5-yl]-1H-pyridin-2-one]	–	309 nM
O=c1c(Cl)c(-c2ccc3c(ccn3[C@H]3CC[C@H](O)CC3)c2)ccn1CC1CC1 [Compound 8, trans-3-Chloro-1-cyclopropylmethyl-4-[1-(4-hydroxy-cyclohexyl)-1H-indol-5-yl]-1H-pyridin-2-one]	209.4 °C	302 nM
CCCCn1ccc(-c2ccc3c(ccn3[C@H]3CC[C@@H](O)CC3)c2)c(Cl)c1=O [Compound 4, cis-1-Butyl-3-chloro-4-[1-(4-hydroxy-cyclohexyl)-1H-indol-5-yl]-1H-pyridin-2-one]	–	148 nM
